The NIST ThermoML archive (doi:10.1016/j.jct.2012.02.038)
Where “and” joins values, the source holds several entries; their conditions need not be identical. Equal entries are not always repeated.

Columns and labels:
[1] = refractive index (other wavelength) (dimensionless); details: 101.3 kPa, Liquid, Wavelength=632.8 nm, Minimum deviation technique
[2] = refractive index (other wavelength) (dimensionless); xn = mol fraction of the nth substance listed; details: 101.3 kPa, Liquid, Wavelength=632.8 nm, Minimum deviation technique

COC(=O)CCCCC(=O)OC [dimethyl 1,6-hexanedioate]
[1]
Details | refractive index
293.15 K | 1.4275
294.14 K | 1.4271
295.19 K | 1.4267
296.25 K | 1.4263
298.35 K | 1.4254
299.4 K | 1.425 and 1.4249
300.18 K | 1.4246
301 K | 1.4243
301.84 K | 1.4239
302.58 K | 1.4236
303.19 K | 1.4234
303.88 K | 1.4231

COC(=O)CCCCC(=O)OC [dimethyl 1,6-hexanedioate] + CCCCCCCC
[2], 299.79 K
Details | refractive index
x1 = 0.099 | 1.3955
x1 = 0.2 | 1.3985
x1 = 0.302 | 1.4014
x1 = 0.4 | 1.4047
x1 = 0.5 | 1.408
x1 = 0.602 | 1.4113
x1 = 0.701 | 1.4146
x1 = 0.8 | 1.418
x1 = 0.899 | 1.4214

COC(=O)CCCCC(=O)OC [dimethyl 1,6-hexanedioate] + CCCCCCCCC
[2], 305.07 K
Details | refractive index
x1 = 0.101 | 1.4
x1 = 0.2 | 1.4017
x1 = 0.295 | 1.404
x1 = 0.39 | 1.406
x1 = 0.492 | 1.4085
x1 = 0.594 | 1.411
x1 = 0.713 | 1.4143
x1 = 0.79 | 1.4163
x1 = 0.902 | 1.4197

CCCCCCCCC [nonane]
[1]
Details | refractive index
299.25 K | 1.4015
300.07 K | 1.4011
300.85 K | 1.4007
301.85 K | 1.4003
302.57 K | 1.3999
303.3 K | 1.3995
303.83 K | 1.3993

CCCCCCCC [octane]
[1]
Details | refractive index
293.23 K | 1.3964
294.23 K | 1.3959
295.29 K | 1.3954
296.27 K | 1.3949
297.41 K | 1.3944
298.48 K | 1.3939
299.5 K | 1.3934
